From patent US9669016B2, “Antiparasitic effect of Bis[3,5-Bis(Benzylidene)-4-Oxo-1-Piperidinyl]amide Derivatives” (priority 2014, dated 2017)

Columns and labels:
L. major promastigotes = experiment: Mitoprobe JC-1 mitochondrial membrane potential assay; type: cell-based, Leishmania major; conditions: three concentrations, four hours
Description: L. major promastigotes and intraperitoneal macrophages from BALB/c mice were treated with each compound at three concentrations for four hours. Then, cells were stained with 2 μM of the fluorophore 5,5′,6,6′-tetrachloro-1,1′,3,3′-tetraethylbenzimidazolylcarboncyanine iodide (JC-1) following a modified version of manufacturer's instruction (Life Technologies, Grand Island, N.Y.). The disruption of mitochondrial Δψm is evidenced by an appreciable shift of the fluorescence signal from red to green. JC-1 aggregates or monomers, emitting red or green signal, were identified via flow cytometer (Cytomics Fc500) by using FL-2 or FL-1 detectors, respectively. A proton ionophore that dissipates the mitochondrial Δψm carbonyl cyanide 3-chlorophenylhydrazone (CCCP) at 50 μM, was used as a positive control. Cells treated with the diluent of the compounds (DMSO) and untreated were used as negative controls. Data collection and analysis was performed by using CXP software (Beckman Coulter). JC-1 is the most widely applied method for detecting mitochondrial depolarization occurring in the early stages of apoptosis.

[1] = target: trypanothione reductase (TR) from T. cruzi (Trypanosoma cruzi, UniProt P28593); experiment: Trypanothione reductase inhibition; type: biochemical; conditions: preliminary, unpublished data
[2] = target: lipoamide dehydrogenase (LipDH) also from T. cruzi (Trypanosoma cruzi, UniProt P90597); experiment: Lipoamide dehydrogenase inhibition; type: biochemical; conditions: preliminary, unpublished data
lipoamide dehydrogenase (LipDH) also from T. cruzi, sequence (P90597 whole entry): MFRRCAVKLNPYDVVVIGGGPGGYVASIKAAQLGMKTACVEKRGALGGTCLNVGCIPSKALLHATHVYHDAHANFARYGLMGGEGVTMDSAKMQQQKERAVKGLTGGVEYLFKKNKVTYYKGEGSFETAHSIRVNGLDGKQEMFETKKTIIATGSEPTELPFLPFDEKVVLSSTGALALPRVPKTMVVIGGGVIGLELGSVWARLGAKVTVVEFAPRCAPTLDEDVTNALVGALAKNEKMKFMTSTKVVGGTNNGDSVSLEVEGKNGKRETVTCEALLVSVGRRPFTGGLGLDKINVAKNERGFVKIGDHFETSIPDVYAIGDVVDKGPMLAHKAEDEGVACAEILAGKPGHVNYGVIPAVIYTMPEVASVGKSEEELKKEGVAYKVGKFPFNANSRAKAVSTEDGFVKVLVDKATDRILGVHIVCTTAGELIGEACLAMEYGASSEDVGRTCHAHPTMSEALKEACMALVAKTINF

trypanothione reductase (TR) from T. cruzi, sequence (P28593 whole entry): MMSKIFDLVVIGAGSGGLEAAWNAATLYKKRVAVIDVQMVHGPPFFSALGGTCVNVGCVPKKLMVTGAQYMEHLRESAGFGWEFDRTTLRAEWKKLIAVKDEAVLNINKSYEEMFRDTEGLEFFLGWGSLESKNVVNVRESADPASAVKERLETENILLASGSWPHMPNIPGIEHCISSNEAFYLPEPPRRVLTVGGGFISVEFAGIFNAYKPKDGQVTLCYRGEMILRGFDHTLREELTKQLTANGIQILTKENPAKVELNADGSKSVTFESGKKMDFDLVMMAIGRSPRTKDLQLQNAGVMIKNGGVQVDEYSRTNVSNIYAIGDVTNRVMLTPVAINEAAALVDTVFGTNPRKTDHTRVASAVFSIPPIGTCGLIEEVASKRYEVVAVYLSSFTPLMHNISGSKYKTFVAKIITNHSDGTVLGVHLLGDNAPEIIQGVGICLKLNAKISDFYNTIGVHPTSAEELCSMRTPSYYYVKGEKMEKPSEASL

SMILES: CN(C)CC1CCC(CN(C)C)C1=O (stereo not shown) [NC884]
- mitochondrial membrane potential (Δψm) vs 1% DMSO (L. major promastigotes): concentration dependent loss in Δψm
- inhibition of trypanothione reductase [1]: time-dependent irreversible inhibition
- inhibition of lipoamide dehydrogenase [2]: time-dependent irreversible inhibition

SMILES: CN(C)CC1CCCC(CN(C)C)C1=O (stereo not shown) [NC901]
- mitochondrial membrane potential (Δψm) vs 1% DMSO (L. major promastigotes): concentration dependent loss in Δψm
- inhibition of trypanothione reductase [1]: time-dependent irreversible inhibition
- inhibition of lipoamide dehydrogenase [2]: time-dependent irreversible inhibition

SMILES: O=C1/C(=C/c2ccccc2)CN(C(=O)C(=O)N2C/C(=C\c3ccccc3)C(=O)/C(=C/c3ccccc3)C2)C/C1=C\c1ccccc1 [NC2459]
- mitochondrial membrane potential (Δψm) vs 1% DMSO (L. major promastigotes): concentration dependent loss in Δψm
